In patent publication US20240425502A1, “BICYCLIC HETEROAROMATIC COMPOUNDS AND THEIR USE AS PEST CONTROL AGENTS” (PI INDUSTRIES LTD., priority 2021, published 2024):

Key:
Format in all cases: in vivo
Nilaparvata lugens = Nilaparvata lugens seedling dip test (paddy seedlings, third instar nymphs); conditions: 72 h after release, dead and moribund combined, compared to untreated control, read-out: percent mortality
Myzus persicae = Myzus persicae leaf dip test (capsicum leaves, third instar nymphs); conditions: foliar, 72 h after release, dead and moribund combined, compared to untreated control, read-out: percent mortality
Bemisia tabaci = Bemisia tabaci leaf dip test (brinjal leaves, whitefly adults); conditions: foliar, 72 h after release, dead and moribund combined, compared to untreated control, read-out: percent mortality
Method: The leaf dip method was used for testing, wherein the required quantity of the compound was weighed and dissolved in a tube containing a solvent solution. The tube was put on a vortex at 2000 rpm for 90 min for proper mixing and then the mixture was diluted with a 0.01% Triton-X solution to the desired test concentration. Brinjal leaves were dipped in the compound solution for 10 seconds, shade dried for 20 min and then placed, with the abaxial side of the leaf up, on 4 ml of a 1% agar-agar solution in respective container caps. Known numbers of freshly emerged whitefly adults were collected, using a modified aspirator, and released into a perforated container in which the cap containing the treated leaf was placed. The containers were kept in a plant growth chamber at a temperature of 25° C. and a relative humidity of 70%. Observations on dead, moribund and alive adults were recorded 72 h after the release. Percent mortality was calculated by combining dead and moribund adults and comparing the result to the one of the untreated control. The compounds 32 53 58 79 80 81 82 84 87 88 89 94 95 96 101 102 103 104 105 106 107 108 109 112 113 114 115 116 117 118 119 120 123 124 125 126 127 130 135 138 139 140 144 145 147 150 154 156 158 159 164 167 168 169 170 171 188 189 191 198 199 200 201 202 206 207 208 209 210 213 216 223 224 225 227 228 231 232 233 234 235 236 238 242 243 244 246 and 247 recorded≥70 percent mortality @ 300 PPM.

| SMILES | mortality at 300 ppm (Nilaparvata lugens) | mortality at 300 ppm (Myzus persicae) | mortality at 300 ppm (Bemisia tabaci) |
| --- | --- | --- | --- |
| O=c1nc2n(Cc3cnc(Cl)s3)cccc-2c(=O)n1-c1ccccc1 [Compound 62, 8-((2-chlorothiazol-5-yl)methyl)-3-phenylpyrido[2,3-d]pyrimidine-2,4(3H,8H)-dione] | ≥ 70% | – | – |
| COc1ccccc1-n1c(=O)nc2n(Cc3cnc(Cl)s3)cccc-2c1=O [Compound 73, 8-((2-chlorothiazol-5-yl)methyl)-3-(2-methoxyphenyl)pyrido[2,3-d]pyrimidine-2,4(3H,8H)-dione] | ≥ 70% | ≥ 70% | – |
| O=c1nc2n(Cc3cnc(Cl)nc3)cccc-2c(=O)n1-c1ccc(Cl)c(Cl)c1 [Compound 158, 8-((2-chloropyrimidin-5-yl)methyl)-3-(3,4-dichlorophenyl)pyrido[2,3-d]pyrimidine-2,4(3H,8H)-dione] | – | – | ≥ 70% |
| O=c1nc2n(Cc3ccc(C(F)(F)F)nc3)cccc-2c(=O)n1-c1ccccc1F [Compound 162, 3-(2-fluorophenyl)-8-((6-(trifluoromethyl)pyridin-3-yl)methyl)pyrido[2,3-d]pyrimidine-2,4(3H,8H)-dione] | ≥ 70% | – | – |
| O=c1nc2n(Cc3cnc(Cl)s3)cccc-2c(=O)n1-c1ccc(F)cc1 [Compound 153, 8-((2-chlorothiazol-5-yl)methyl)-3-(4-fluorophenyl)pyrido[2,3-d]pyrimidine-2,4(3H,8H)-dione] | ≥ 70% | – | – |
| O=c1nc2n(Cc3cnc(Cl)nc3)cccc-2c(=O)n1-c1ccsc1 [Compound 179, 8-((2-chloropyrimidin-5-yl)methyl)-3-(thiophen-3-yl)pyrido[2,3-d]pyrimidine-2,4(3H,8H)-dione] | ≥ 70% | ≥ 70% | – |
| O=c1nc2n(Cc3cnc(Cl)s3)cccc-2c(=O)n1-c1ccc(F)cc1Cl [Compound 237, 3-(2-chloro-4-fluorophenyl)-8-((2-chlorothiazol-5-yl)methyl)pyrido[2,3-d]pyrimidine-2,4(3H,8H)-dione] | ≥ 70% | – | – |
| O=c1nc2n(Cc3cnc(Cl)nc3)cccc-2c(=O)n1-c1ccc(OC(F)F)cc1 [Compound 160, 8-((2-chloropyrimidin-5-yl)methyl)-3-(4-(difluoromethoxy)phenyl)pyrido[2,3-d]pyrimidine-2,4(3H,8H)-dione] | ≥ 70% | ≥ 70% | – |
| O=c1nc2n(Cc3cnc(Cl)nc3)cccc-2c(=O)n1-c1cccc(C(F)F)c1 [Compound 203, 8-((2-chloropyrimidin-5-yl)methyl)-3-(3-(difluoromethyl)phenyl)pyrido[2,3-d]pyrimidine-2,4(3H,8H)-dione] | ≥ 70% | ≥ 70% | – |
| O=c1nc2n(Cc3cnc(Cl)nc3)cccc-2c(=O)n1-c1cccc(F)c1F [Compound 205, 8-((2-chloropyrimidin-5-yl)methyl)-3-(2,3-difluorophenyl)pyrido[2,3-d]pyrimidine-2,4(3H,8H)-dione] | ≥ 70% | ≥ 70% | – |
| O=c1nc2n(Cc3cnc(Cl)s3)cccc-2c(=O)n1-c1cccc(F)c1 [Compound 143, 8-((2-chlorothiazol-5-yl)methyl)-3-(3-fluorophenyl)pyrido[2,3-d]pyrimidine-2,4(3H,8H)-dione] | ≥ 70% | – | – |
| O=c1nc2n(Cc3cnc(Cl)s3)cccc-2c(=O)n1-c1ccc(F)c(Cl)c1 [Compound 165, 3-(3-chloro-4-fluorophenyl)-8-((2-chlorothiazol-5-yl)methyl)pyrido[2,3-d]pyrimidine-2,4(3H,8H)-dione] | ≥ 70% | – | – |
| O=c1nc2n(Cc3cnc(Cl)nc3)cccc-2c(=O)n1-c1ccc(C2CC2)cc1 [Compound 245, 8-((2-chloropyrimidin-5-yl)methyl)-3-(4-cyclopropylphenyl)pyrido[2,3-d]pyrimidine-2,4(3H,8H)-dione] | ≥ 70% | – | – |
| O=c1nc2n(Cc3cnc(Cl)s3)cccc-2c(=O)n1-c1cccc(C(F)F)c1 [Compound 187, 8-((2-chlorothiazol-5-yl)methyl)-3-(3-(difluoromethyl)phenyl)pyrido[2,3-d]pyrimidine-2,4(3H,8H)-dione] | ≥ 70% | ≥ 70% | – |
| O=c1nc2n(Cc3cnc(Cl)nc3)cccc-2c(=O)n1-c1cccc(Cl)c1F [Compound 226, 3-(3-chloro-2-fluorophenyl)-8-((2-chloropyrimidin-5-yl)methyl)pyrido[2,3-d]pyrimidine-2,4(3H,8H)-dione] | ≥ 70% | ≥ 70% | – |
| Cc1cccc(-n2c(=O)nc3n(Cc4cnc(Cl)nc4)cccc-3c2=O)c1 [Compound 128, 8-((2-chloropyrimidin-5-yl)methyl)-3-(m-tolyl)pyrido[2,3-d]pyrimidine-2,4(3H,8H)-dione] | ≥ 70% | – | – |
| O=c1nc2n(Cc3cnc(Cl)s3)cccc-2c(=O)n1-c1cccc(OC(F)F)c1 [Compound 151, 8-((2-chlorothiazol-5-yl)methyl)-3-(3-(difluoromethoxy)phenyl)pyrido[2,3-d]pyrimidine-2,4(3H,8H)-dione] | ≥ 70% | ≥ 70% | – |
| O=c1nc2n(Cc3ccc(C(F)(F)F)nc3)cccc-2c(=O)n1-c1cccc(C(F)(F)F)c1 [Compound 172, 3-(3-(trifluoromethyl)phenyl)-8-((6-(trifluoromethyl)pyridin-3-yl)methyl)pyrido[2,3-d]pyrimidine-2,4(3H,8H)-dione] | – | ≥ 70% | – |
| O=c1nc2n(Cc3ccc(Cl)nc3)cccc-2c(=O)n1-c1ccc(Cl)c(C(F)(F)F)c1 [Compound 219, 3-(4-chloro-3-(trifluoromethyl)phenyl)-8-((6-chloropyridin-3-yl)methyl)pyrido[2,3-d]pyrimidine-2,4(3H,8H)-dione] | ≥ 70% | – | – |
| O=c1nc2n(Cc3cnc(Cl)s3)cccc-2c(=O)n1-c1cccc(Cl)c1F [Compound 217, 3-(3-chloro-2-fluorophenyl)-8-((2-chlorothiazol-5-yl)methyl)pyrido[2,3-d]pyrimidine-2,4(3H,8H)-dione] | ≥ 70% | ≥ 70% | – |
| O=c1nc2n(Cc3ccc(Cl)nc3)cccc-2c(=O)n1-c1ccc(F)c(C(F)(F)F)c1 [Compound 222, 8-((6-chloropyridin-3-yl)methyl)-3-(4-fluoro-3-(trifluoromethyl)phenyl)pyrido[2,3-d]pyrimidine-2,4(3H,8H)-dione] | – | ≥ 70% | – |
| O=c1nc2n(Cc3cnc(Cl)s3)cccc-2c(=O)n1-c1ccc(OC(F)(F)F)c(Cl)c1 [Compound 212, 3-(3-chloro-4-(trifluoromethoxy)phenyl)-8-((2-chlorothiazol-5-yl)methyl)pyrido[2,3-d]pyrimidine-2,4(3H,8H)-dione] | ≥ 70% | ≥ 70% | – |
| O=c1nc2n(Cc3cnc(Cl)s3)cccc-2c(=O)n1-c1c(F)cccc1F [Compound 215, 8-((2-chlorothiazol-5-yl)methyl)-3-(2,6-difluorophenyl)pyrido[2,3-d]pyrimidine-2,4(3H,8H)-dione] | ≥ 70% | – | – |
| O=c1nc2n(Cc3cnc(Cl)s3)cccc-2c(=O)n1-c1ccc(Cl)cc1F [Compound 193, 3-(4-chloro-2-fluorophenyl)-8-((2-chlorothiazol-5-yl)methyl)pyrido[2,3-d]pyrimidine-2,4(3H,8H)-dione] | ≥ 70% | ≥ 70% | – |
| O=c1nc2n(Cc3cnc(Cl)s3)cccc-2c(=O)n1-c1cccc(Br)c1 [Compound 249, 3-(3-bromophenyl)-8-((2-chlorothiazol-5-yl)methyl)pyrido[2,3-d]pyrimidine-2,4(3H,8H)-dione] | ≥ 70% | – | – |
| O=c1nc2n(Cc3ccc(Cl)nc3)cccc-2c(=O)n1-c1cccc(OCC(F)(F)F)c1 [Compound 211, 8-((6-chloropyridin-3-yl)methyl)-3-(3-(2,2,2-trifluoroethoxy)phenyl)pyrido[2,3-d]pyrimidine-2,4(3H,8H)-dione] | ≥ 70% | ≥ 70% | – |
| COc1cccc(-n2c(=O)nc3n(Cc4cnc(Cl)s4)cccc-3c2=O)c1 [Compound 72, 8-((2-chlorothiazol-5-yl)methyl)-3-(3-methoxyphenyl)pyrido[2,3-d]pyrimidine-2,4(3H,8H)-dione] | ≥ 70% | – | – |
| O=c1nc2n(Cc3cnc(Cl)s3)cccc-2c(=O)n1-c1cc(F)cc(F)c1 [Compound 141, 8-((2-chlorothiazol-5-yl)methyl)-3-(3,5-difluorophenyl)pyrido[2,3-d]pyrimidine-2,4(3H,8H)-dione] | ≥ 70% | ≥ 70% | – |
| O=c1nc2n(Cc3cnc(Cl)s3)cccc-2c(=O)n1-c1cccc(F)c1F [Compound 214, 8-((2-chlorothiazol-5-yl)methyl)-3-(2,3-difluorophenyl)pyrido[2,3-d]pyrimidine-2,4(3H,8H)-dione] | ≥ 70% | ≥ 70% | – |
| O=c1nc2n(Cc3ccc(Cl)nc3)cccc-2c(=O)n1-c1ccc(OC(F)(F)F)c(Cl)c1 [Compound 195, 3-(3-chloro-4-(trifluoromethoxy)phenyl)-8-((6-chloropyridin-3-yl)methyl)pyrido[2,3-d]pyrimidine-2,4(3H,8H)-dione] | ≥ 70% | ≥ 70% | – |
